Source: the supplement of paper PMC10307832

Legend:
Assay in all cases: relative viability (nuclei count vs DMSO), 5 days (fraction); higher = more cells survive
VE-821 + Navitoclax = compound: CS(=O)(=O)c1ccc(-c2cnc(N)c(C(=O)Nc3ccccc3)n2)cc1 [VE-821] + CC1(C)CCC(c2ccc(Cl)cc2)=C(CN2CCN(c3ccc(C(=O)NS(=O)(=O)c4ccc(N[C@H](CCN5CCOCC5)CSc5ccccc5)c(S(=O)(=O)C(F)(F)F)c4)cc3)CC2)C1 [Navitoclax] (partner 0.5 µM)
Summary of the method: (§1)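 Relative viability equals treated-well nuclei counts divided by vehicle-well nuclei counts. Counts came from 4× images of lung cancer cell lines grown in 1536-well plates for 5 days after pin-tool dosing on the day after seeding. Dosing used one drug alone or a fixed anchor-drug dose plus five library-drug doses (not always all listed) in √10 steps, and values are medians of duplicate plates.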

Vismodegib + Vorinostat = compound: CS(=O)(=O)c1ccc(C(=O)Nc2ccc(Cl)c(-c3ccccn3)c2)c(Cl)c1 [Vismodegib] + O=C(CCCCCCC(=O)Nc1ccccc1)NO [Vorinostat] (partner 1 µM)
Summary of the method: as §1

VE-821 + Vorinostat = compound: CS(=O)(=O)c1ccc(-c2cnc(N)c(C(=O)Nc3ccccc3)n2)cc1 [VE-821] + O=C(CCCCCCC(=O)Nc1ccccc1)NO [Vorinostat] (partner 1 µM)
Summary of the method: as §1

Row | Cell Line | relative viability (VE-821 + Navitoclax; first compound 0.08 µM) | relative viability (VE-821 + Navitoclax; first compound 0.253 µM) | relative viability (VE-821 + Navitoclax; first compound 0.8 µM) | relative viability (VE-821 + Navitoclax; first compound 2.53 µM) | relative viability (VE-821 + Navitoclax; first compound 8 µM) | relative viability (Vismodegib + Vorinostat; first compound 0.08 µM) | relative viability (Vismodegib + Vorinostat; first compound 0.253 µM) | relative viability (Vismodegib + Vorinostat; first compound 0.8 µM) | relative viability (Vismodegib + Vorinostat; first compound 2.53 µM) | relative viability (Vismodegib + Vorinostat; first compound 8 µM) | relative viability (VE-821 + Vorinostat; first compound 0.08 µM) | relative viability (VE-821 + Vorinostat; first compound 0.253 µM) | relative viability (VE-821 + Vorinostat; first compound 0.8 µM) | relative viability (VE-821 + Vorinostat; first compound 2.53 µM) | relative viability (VE-821 + Vorinostat; first compound 8 µM)
1 | NCI-H838 | 1.3 | 1.11 | 1.02 | 1.18 | 1.07 | 0.696 | 0.715 | 0.727 | 0.743 | 0.733 | 0.755 | 0.688 | 0.697 | 0.69 | 0.542
2 | NCI-H1355 | 1.09 | 0.91 | 0.729 | 0.879 | 0.542 | 0.716 | 0.632 | 0.569 | 0.611 | 0.648 | 0.819 | 0.61 | 0.663 | 0.72 | 0.57
3 | NCI-H1395 | – | 1.09 | 1.3 | 1.32 | 0.72 | 0.681 | 0.663 | 0.614 | 0.522 | 0.8 | 0.69 | 0.647 | 0.705 | 0.638 | 0.43
4 | NCI-H1437 | 1.17 | 1.11 | 1.01 | 1.12 | 1.04 | 0.824 | 0.756 | 0.806 | 0.732 | 0.804 | 0.847 | 0.797 | 0.901 | 0.777 | 0.611
5 | NCI-H1650 | 1.45 | 1.25 | 0.725 | 1.29 | 0.751 | 0.568 | 0.523 | 0.48 | 0.543 | 0.569 | 0.498 | 0.737 | 0.524 | 0.578 | 0.437
6 | NCI-H1651 | 0.97 | 0.941 | 0.949 | 1.02 | 0.864 | 0.581 | 0.582 | 0.547 | 0.49 | 0.503 | 0.562 | 0.606 | 0.583 | 0.556 | 0.531
7 | NCI-H1666 | 0.98 | 1.01 | 0.939 | 0.875 | 0.703 | 1.04 | 0.957 | 1 | 1.01 | 1.06 | 1.14 | 1.06 | 1.18 | 1.01 | 0.942
8 | NCI-H1734 | 1.03 | 0.875 | 0.79 | 0.862 | 0.63 | 0.791 | 0.732 | 0.821 | 0.723 | 0.737 | 1.03 | 0.762 | 0.733 | 0.707 | 0.44
9 | NCI-H1755 | 1.03 | 0.992 | 0.732 | 0.928 | 0.83 | 0.836 | 0.659 | 0.85 | 0.809 | 0.762 | 0.778 | 0.638 | 0.734 | 0.792 | 0.615
10 | NCI-H1793 | 0.693 | 0.507 | 0.251 | 0.449 | 0.314 | – | 0.717 | 0.733 | 0.734 | 0.748 | 0.996 | 0.616 | – | 0.837 | 0.615
11 | NCI-H1915 | 0.8 | 0.81 | 0.826 | 0.79 | 0.678 | 0.491 | 0.488 | 0.497 | 0.434 | 0.534 | 0.623 | 0.509 | 0.451 | 0.536 | 0.457
12 | NCI-H1944 | 1.16 | 0.997 | 0.92 | 1.1 | 0.643 | 0.592 | 0.522 | 0.735 | – | 0.568 | 0.581 | 0.498 | 0.498 | 0.492 | 0.243
13 | NCI-H1975 | 1 | 1.11 | 0.899 | 1.02 | 0.652 | 0.63 | 0.683 | 0.738 | 0.744 | 0.687 | 0.749 | 0.697 | 0.706 | 0.647 | 0.516
14 | NCI-H1993 | 0.787 | 0.747 | 0.772 | 0.797 | 0.694 | 0.854 | 0.69 | 0.728 | 0.779 | 0.794 | 0.759 | 0.657 | 0.966 | 0.762 | 0.548
15 | NCI-H2009 | 1.16 | 1.13 | 1.13 | 1.26 | 1.16 | 0.724 | 0.921 | 0.723 | 0.708 | 0.722 | 0.771 | 0.668 | 0.699 | 0.76 | 0.683
16 | NCI-H2023 | 1.01 | 1.02 | 0.808 | 0.686 | 0.296 | 0.625 | 0.53 | 0.711 | 0.654 | 0.612 | 0.783 | 0.467 | 0.441 | 0.243 | 0.121
17 | NCI-H2085 | 1.12 | 1.12 | 1.24 | 1.24 | 1.03 | 0.743 | 0.835 | 0.821 | 0.852 | 0.727 | 0.935 | 0.754 | 0.609 | – | 0.511
18 | NCI-H2087 | 1.04 | 1.04 | 1.06 | 1.17 | 0.892 | 0.762 | 0.598 | 0.402 | 0.56 | 0.302 | 0.667 | 0.666 | 0.838 | 0.79 | 0.675
19 | NCI-H2126 | 0.897 | 0.821 | 0.833 | 0.815 | 0.699 | 0.704 | 0.744 | 0.695 | 0.72 | 0.663 | 0.722 | 0.78 | 0.749 | 0.727 | 0.497
20 | NCI-H2170 | 0.598 | 0.561 | 0.512 | 0.554 | 0.323 | 0.83 | 0.712 | 0.824 | 0.815 | 0.838 | 0.923 | 0.687 | 0.872 | 0.805 | 0.635
21 | NCI-H2228 | 0.943 | 1.01 | 0.811 | 0.842 | 0.741 | 1.03 | 0.719 | 0.589 | 0.751 | 0.574 | 0.758 | 0.535 | 0.294 | 0.59 | 0.347
22 | NCI-H2347 | 0.941 | 0.809 | 0.775 | 0.959 | 0.763 | 0.553 | 0.616 | 0.519 | 0.711 | 0.507 | 0.531 | 0.555 | 0.465 | 0.818 | 0.558
